From article PMC8623418, “Novel Multitarget Hydroxamic Acids with a Natural Origin CAP Group against Alzheimer’s Disease: Synthesis, Docking and Biological Evaluation” (Pharmaceutics, 2021)

Key:
[1] = system: lipid peroxidation (LPO) of rat brain homogenate; experiment: Lipid peroxidation (LPO) of rat brain homogenate, TBARS test; assay type: biochemical; settings: substances at 100 μM, mean ± SEM; for % of Activity, Inhibition of LPO, Fe (II): Fe (II)-induced; for % of Activity, Inhibition of LPO, t-BHP: t-BHP-induced
Protocol: To obtain the brain homogenate, rats preliminarily anesthetized with CO2 were decapitated with a guillotine. The brain was homogenized in a buffer containing KCl (120 mM) and HEPES (20 mM), pH = 7.4 at 4 °C, and centrifuged at 1500 rpm to obtain a supernatant. The protein was quantified according to the standard microbiuret method.
To investigate the effect of the compounds on lipid peroxidation (LPO) of rat brain homogenate, we used the modified version of the TBARS test, which is based on the reaction of 2-thiobarbituric acid with the end LPO product—malonic dialdehyde (MDA). The plate well, according to the experimental scheme, contained the compounds under study (100 μM), rat brain homogenate (2 mg/mL), as well as ferrous iron ions ([…]) at a concentration of 500 μM and 1.6 mM tert-butyl hydroxyperoxide as an initiator. After 30 min of incubation at 37 °C, TBARS reagent was added to all samples, incubated for 90 min at 90 °C, and centrifuged at 6000 rpm for 15 min. The optical density of the selected supernatant was measured on a Victor 3 plate reader (Perkin Elmer) at λ = 540 nm.
A rat brain homogenate preparation containing fragments of cell membranes was used as a model system to investigate the antioxidant activity of the hydroxamic acids. To initiate the process of lipid peroxidation, ferrous ions were used to trigger the Fenton reaction, during which the iron valence changes and a highly reactive hydroxyl radical is formed, and tert-butyl hydroxyperoxide as a direct source of free radicals.

β-amyloid 1–40 = β-amyloid 1–40 aggregation, Thioflavin T fluorescence; assay type: biochemical; settings: 100 μM, 72 h incubation
Protocol: The effect of the studied compounds on the aggregation of β-amyloid (1–40/1–42) was analyzed using the method of recording Thioflavin T fluorescence (10 µM) for 72 h at 37 °C. The fluorescence signal was measured using a multifunctional flatbed analyzer, the Cytation ™ 3 (BioTek Instruments, Inc., Winooski, VT, USA), at λex = 450 nm, λem = 480 nm.
The effect of hydroxamic acids on the stage of aggregation of the pathological β-amyloid peptide was investigated for 72 h using two model systems—fragments Aβ1–40 and Aβ1–42. The fluorophore Thioflavin T was used as an indicator of the ongoing fibrillation process, the interaction of which with proteins in the state of amyloid fibrils leads to an increase in the fluorescence signal.

5xFAD transgenic mice = experiment: Ex vivo Congo red staining of Aβ plaques in brain sections; settings: compared to untreated 5XFAD mice
Protocol: For histological examination, the mouse brain was fixed in 10% neutral buffered formalin (Leica Biosystems Inc., Buffalo Grove, IL, USA) at +4 °C for 24 h. Then, the material was dehydrated, defatted, and clarified in a Leica ASP200 apparatus (Leica Biosystems Inc., Buffalo Grove, IL, USA) using ethanol-xylene wiring according to the following scheme: deionized water—2 h; 70% ethanol—12 h; ethanol 96% sequentially—1 h, 30 min, 2 portions 15 min each; a mixture of ethanol and xylene 1:1—20 min; xylene—2 portions for 30 min each; paraffin—3 times for 1 h each. Then, the material was embedded in paraffin blocks using a Leica EG1160 apparatus (Leica Biosystems Inc., Buffalo Grove, IL, USA). […] The results were evaluated using a ZEISS LSM 880 laser scanning microscope with an Airyscan module (Carl Zeiss Vision, Jena, Germany). […] A 10 × 10 grid was imposed on images containing only brain tissue; then, in 10 grid cells located obliquely from top left to right bottom corner, we selected plaques using the ‘magic wand’ tool, so the average plaque area and luminosity were calculated. Three images were analyzed for each animal in each group; then, the average of three animals was calculated. […]

SMILES	% of Activity, Inhibition of LPO, Fe (II) [1] [%]	% of Activity, Inhibition of LPO, t-BHP [1] [%]	Effect on β-amyloid 1–40 aggregation (β-amyloid 1–40)	Reduction in plaque load (Congo red-positive amyloid) (5xFAD transgenic mice)
O=C(CCCCCCC(=O)NC1C2CC3CC(C2)CC1C3)NO (centres unmarked) [compound 15, N^1-(Adamant-2-yl)-N^8-Hydroxyoctanediamide]	21.52 ± 2.15	43.24 ± 1.28	noticeable fibrillation inhibition	45%
O=C(/C=C/c1ccc(C(=O)NO)cc1)NC1C2CC3CC(C2)CC1C3 (centres unmarked) [compound 25, 4-((E)-3-((-Adamantan-2-yl)amino)-3-Oxoprop-1-en-1-yl)-N-Hydroxybenzamide]	19.81 ± 4.83	44.59 ± 1.73	noticeable fibrillation inhibition	No changes in β-amyloid plaque level
